According to PubChem BioAssay AID220 (DTP/NCI, 2004):
Values joined by “and” are separate entries in the source; they are usually repeats but may differ in a detail not shown here. Identical values can stand only once. Inconclusive results are not listed.

Tested on: CD8F1 mice, subcutaneous mammary adenocarcinoma, T/C%
Experiment: NCI In Vivo Anticancer Drug Screen. Data for tumor model Mammary Adenocarcinoma CD8F1 (subcutaneous) in CD8F1
Settings: higher = larger tumour
Procedure, shortened: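 Ratio of treated to vehicle-control outcome, based on either survival or tumor size, in mice bearing transplantable tumors given the test compound.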

[1] = endpoint: median tumor weight (est.), dose: 25.0 mg/kg/injection, schedule: Q07DX005 (ip), vehicle: saline
[2] = endpoint: median tumor weight (est.), dose: 100.0 mg/kg/injection, schedule: Q07DX005 (ip), vehicle: saline
[3] = endpoint: median tumor weight (est.), dose: 400.0 mg/kg/injection, schedule: Q07DX005 (ip), vehicle: saline

CCc1ccccc1N1CCN(C(=O)c2cc(OC)c(OC)c(OC)c2)CC1
T/C (endpoint: median tumor weight (est.), dose: 12.5 mg/kg/injection, schedule: Q07DX003 (ip), vehicle: Klucel (hydroxypropylcellulose) (HPC)): 68 % of control | T/C (endpoint: median tumor weight (est.), dose: 12.5 mg/kg/injection, schedule: Q07DX004 (ip), vehicle: Klucel (hydroxypropylcellulose) (HPC)): 50 % of control | T/C (endpoint: median tumor weight (est.), dose: 50.0 mg/kg/injection, schedule: Q04DX005 (ip), vehicle: Klucel (hydroxypropylcellulose) (HPC)): 167 % of control and 269 % of control | T/C (endpoint: median tumor weight (est.), dose: 50.0 mg/kg/injection, schedule: Q07DX003 (ip), vehicle: Klucel (hydroxypropylcellulose) (HPC)): 182 % of control | T/C (endpoint: median tumor weight (est.), dose: 100.0 mg/kg/injection, schedule: Q04DX005 (ip), vehicle: Klucel (hydroxypropylcellulose) (HPC)): 152 % of control and 206 % of control | T/C (endpoint: median tumor weight (est.), dose: 100.0 mg/kg/injection, schedule: Q07DX003 (ip), vehicle: Klucel (hydroxypropylcellulose) (HPC)): 112 % of control | T/C (endpoint: median tumor weight (est.), dose: 100.0 mg/kg/injection, schedule: Q07DX004 (ip), vehicle: Klucel (hydroxypropylcellulose) (HPC)): 274 % of control | T/C (endpoint: median tumor weight (est.), dose: 200.0 mg/kg/injection, schedule: Q07DX003 (ip), vehicle: Klucel (hydroxypropylcellulose) (HPC)): 111 % of control | T/C (endpoint: median tumor weight (est.), dose: 400.0 mg/kg/injection, schedule: Q04DX005 (ip), vehicle: Klucel (hydroxypropylcellulose) (HPC)): 44 % of control | T/C (endpoint: median tumor weight (est.), dose: 400.0 mg/kg/injection, schedule: Q07DX003 (ip), vehicle: Klucel (hydroxypropylcellulose) (HPC)): 36 % of control

c1cc[c]([Sn]([NH]c2ncnc3[nH]cnc23)([NH]c2ncnc3[nH]cnc23)[c]2ccccc2)cc1
T/C (endpoint: median tumor weight change, dose: 125.0 mg/kg/injection, schedule: Q01DX001 (ip), vehicle: suspension in saline): 101 % of control | T/C (endpoint: median tumor weight change, dose: 250.0 mg/kg/injection, schedule: Q01DX001 (ip), vehicle: suspension in saline): 61 % of control | T/C (endpoint: median tumor weight change, dose: 500.0 mg/kg/injection, schedule: Q01DX001 (ip), vehicle: suspension in saline): 41 % of control | T/C (endpoint: median tumor weight change, dose: 1000.0 mg/kg/injection, schedule: Q01DX001 (ip), vehicle: suspension in saline): 42 % of control

Nc1nc(F)nc2c1ncn2C1OC(COP(=O)(O)O)C(O)C1O (stereo not drawn)
T/C (endpoint: median tumor weight (est.), dose: 12.5 mg/kg/injection, schedule: Q07DX005 (ip), vehicle: suspension in saline): 69 % of control | T/C (endpoint: median tumor weight (est.), dose: 25.0 mg/kg/injection, schedule: Q07DX005 (ip), vehicle: Klucel (hydroxypropylcellulose) (HPC)): 49 % of control | T/C [1]: 84 % of control | T/C (endpoint: median tumor weight (est.), dose: 25.0 mg/kg/injection, schedule: Q07DX005 (ip), vehicle: suspension in saline): 101 % of control | T/C (endpoint: median tumor weight (est.), dose: 50.0 mg/kg/injection, schedule: Q07DX005 (ip), vehicle: Klucel (hydroxypropylcellulose) (HPC)): 77 % of control | T/C (endpoint: median tumor weight (est.), dose: 50.0 mg/kg/injection, schedule: Q07DX005 (ip), vehicle: suspension in saline): 76 % of control | T/C (endpoint: median tumor weight (est.), dose: 100.0 mg/kg/injection, schedule: Q07DX005 (ip), vehicle: Klucel (hydroxypropylcellulose) (HPC)): 101 % of control | T/C [2]: 75 % of control and 98 % of control | T/C (endpoint: median tumor weight (est.), dose: 100.0 mg/kg/injection, schedule: Q07DX005 (ip), vehicle: suspension in saline): 66 % of control | T/C (endpoint: median tumor weight (est.), dose: 200.0 mg/kg/injection, schedule: Q07DX005 (ip), vehicle: Klucel (hydroxypropylcellulose) (HPC)): 50 % of control | T/C (endpoint: median tumor weight (est.), dose: 200.0 mg/kg/injection, schedule: Q07DX005 (ip), vehicle: suspension in saline): 50 % of control | T/C (endpoint: median tumor weight (est.), dose: 400.0 mg/kg/injection, schedule: Q07DX005 (ip), vehicle: Klucel (hydroxypropylcellulose) (HPC)): 34 % of control | T/C [3]: 20 % of control

CCCC(=O)Nc1ncnc2c1ncn2C1OC2COP(=O)(O)OC2C1OC(=O)CCC (stereo not drawn)
T/C (endpoint: mean tumor weight, dose: 50.0 mg/kg/injection, schedule: Q01DX009 (ip), vehicle: saline): 100 % of control | T/C (endpoint: mean tumor weight, dose: 100.0 mg/kg/injection, schedule: Q07DX007 (ip), vehicle: saline): 117 % of control | T/C (endpoint: mean tumor weight, dose: 200.0 mg/kg/injection, schedule: Q01DX009 (ip), vehicle: saline): 111 % of control | T/C (endpoint: mean tumor weight, dose: 200.0 mg/kg/injection, schedule: Q07DX007 (ip), vehicle: saline): 78 % of control | T/C (endpoint: mean tumor weight, dose: 400.0 mg/kg/injection, schedule: Q01DX009 (ip), vehicle: saline): 55 % of control | T/C (endpoint: mean tumor weight, dose: 400.0 mg/kg/injection, schedule: Q07DX007 (ip), vehicle: saline): 43 % of control | T/C [1]: 75 % of control | T/C (endpoint: median tumor weight (est.), dose: 50.0 mg/kg/injection, schedule: Q07DX005 (ip), vehicle: saline): 114 % of control | T/C [2]: 122 % of control | T/C (endpoint: median tumor weight (est.), dose: 200.0 mg/kg/injection, schedule: Q07DX005 (ip), vehicle: saline): 77 % of control | T/C [3]: 83 % of control | T/C (endpoint: median tumor weight (est.), dose: 800.0 mg/kg/injection, schedule: Q07DX005 (ip), vehicle: saline): 72 % of control

BrCCC1(CCBr)CCCCC1
T/C (endpoint: median tumor weight change, dose: 125.0 mg/kg/injection, schedule: Q01DX001 (ip), vehicle: other): 80 % of control | T/C (endpoint: median tumor weight change, dose: 250.0 mg/kg/injection, schedule: Q01DX001 (ip), vehicle: other): 79 % of control | T/C (endpoint: median tumor weight change, dose: 500.0 mg/kg/injection, schedule: Q01DX001 (ip), vehicle: other): 83 % of control | T/C (endpoint: median tumor weight change, dose: 1000.0 mg/kg/injection, schedule: Q01DX001 (ip), vehicle: other): 109 % of control | T/C (endpoint: median tumor weight change, dose: 2000.0 mg/kg/injection, schedule: Q01DX001 (ip), vehicle: other): 119 % of control

C/C=C/c1cc2n(c1)C(=O)c1cc(OC3OC(C)C(NC)C(C)(O)C3O)c(C)c(O)c1NC2O (stereo not drawn)
T/C (endpoint: median tumor weight (est.), dose: 1.0 micrograms/kg/injection, schedule: Q07DX005 (ip), vehicle: saline): 60 % of control

C1CN(P2(N3CC3)=NP(N3CC3)(N3CC3)=NP(N3CC3)(N3CC3)=N2)CCO1 (stereo not drawn)
T/C (endpoint: median tumor weight (est.), dose: 6.25 mg/kg/injection, schedule: Q07DX005 (ip), vehicle: saline): 39 % of control | T/C (endpoint: median tumor weight (est.), dose: 12.5 mg/kg/injection, schedule: Q07DX005 (ip), vehicle: saline): 44 % of control | T/C [1]: 6 % of control

CC(C)[NH-].CC(C)[NH-].[Cl][Pt+2][Cl]
T/C (endpoint: median tumor weight (est.), dose: 3.12 mg/kg/injection, schedule: Q07DX005 (ip), vehicle: dextrose): 106 % of control | T/C (endpoint: median tumor weight (est.), dose: 6.25 mg/kg/injection, schedule: Q07DX005 (ip), vehicle: dextrose): 80 % of control | T/C (endpoint: median tumor weight (est.), dose: 12.5 mg/kg/injection, schedule: Q07DX005 (ip), vehicle: dextrose): 42 % of control | T/C (endpoint: median tumor weight (est.), dose: 25.0 mg/kg/injection, schedule: Q07DX005 (ip), vehicle: dextrose): 76 % of control | T/C (endpoint: median tumor weight (est.), dose: 50.0 mg/kg/injection, schedule: Q07DX005 (ip), vehicle: dextrose): 27 % of control | T/C (endpoint: median tumor weight (est.), dose: 100.0 mg/kg/injection, schedule: Q07DX005 (ip), vehicle: dextrose): 42 % of control

COc1ccc2[nH]c3c(c2c1)CCNC3CC(C)CCC=C(C)C (stereo not drawn)
T/C (endpoint: median tumor weight change, dose: 15.62 mg/kg/injection, schedule: Q01DX001 (ip), vehicle: Klucel (hydroxypropylcellulose) (HPC)): 118 % of control | T/C (endpoint: median tumor weight change, dose: 25.0 mg/kg/injection, schedule: Q01DX001 (ip), vehicle: Klucel (hydroxypropylcellulose) (HPC)): 100 % of control | T/C (endpoint: median tumor weight change, dose: 31.25 mg/kg/injection, schedule: Q01DX001 (ip), vehicle: Klucel (hydroxypropylcellulose) (HPC)): 197 % of control | T/C (endpoint: median tumor weight change, dose: 50.0 mg/kg/injection, schedule: Q01DX001 (ip), vehicle: Klucel (hydroxypropylcellulose) (HPC)): 64 % of control | T/C (endpoint: median tumor weight change, dose: 100.0 mg/kg/injection, schedule: Q01DX001 (ip), vehicle: Klucel (hydroxypropylcellulose) (HPC)): 51 % of control | T/C (endpoint: median tumor weight change, dose: 125.0 mg/kg/injection, schedule: Q01DX001 (ip), vehicle: Klucel (hydroxypropylcellulose) (HPC)): 159 % of control

CC1=CC(C)(C)Nc2ccc(CSc3ccccc3)cc21
T/C (endpoint: median tumor weight change, dose: 50.0 mg/kg/injection, schedule: Q01DX001 (ip), vehicle: saline + Tween-80 + alcohol): 46 % of control | T/C (endpoint: median tumor weight change, dose: 62.0 mg/kg/injection, schedule: Q01DX001 (ip), vehicle: DMSO): 37 % of control | T/C (endpoint: median tumor weight change, dose: 100.0 mg/kg/injection, schedule: Q01DX001 (ip), vehicle: saline + Tween-80 + alcohol): 37 % of control | T/C (endpoint: median tumor weight change, dose: 125.0 mg/kg/injection, schedule: Q01DX001 (ip), vehicle: DMSO): 38 % of control | T/C (endpoint: median tumor weight change, dose: 200.0 mg/kg/injection, schedule: Q01DX001 (ip), vehicle: saline + Tween-80 + alcohol): 47 % of control | T/C (endpoint: median tumor weight change, dose: 250.0 mg/kg/injection, schedule: Q01DX001 (ip), vehicle: DMSO): 29 % of control | T/C (endpoint: median tumor weight change, dose: 400.0 mg/kg/injection, schedule: Q01DX001 (ip), vehicle: saline + Tween-80 + alcohol): 46 % of control | T/C (endpoint: median tumor weight change, dose: 800.0 mg/kg/injection, schedule: Q01DX001 (ip), vehicle: saline + Tween-80 + alcohol): 32 % of control | T/C (endpoint: median tumor weight change, dose: 2000.0 mg/kg/injection, schedule: Q01DX001 (ip), vehicle: DMSO): 61 % of control

CC1=C(/C=C/C(C)=C/C=C/C(C)=C/C(=O)O)C(C)(C)CCC1
T/C (endpoint: median tumor weight (est.), dose: 8.0 mg/kg/injection, schedule: Q07DX005 (ip), vehicle: saline with Tween-80): 47 % of control | T/C (endpoint: median tumor weight (est.), dose: 16.0 mg/kg/injection, schedule: Q07DX005 (ip), vehicle: saline with Tween-80): 71 % of control | T/C (endpoint: median tumor weight (est.), dose: 64.0 mg/kg/injection, schedule: Q07DX005 (ip), vehicle: saline with Tween-80): 92 % of control and 106 % of control | T/C (endpoint: median tumor weight (est.), dose: 256.0 mg/kg/injection, schedule: Q07DX005 (ip), vehicle: saline with Tween-80): 49 % of control
